Measurements from patent US20200325177A1, “METHODS OF MAKING STREPTOGRAMIN COMPOSITIONS AND THE USE THEREOF” (THE REGENTS OF THE UNIVERSITY OF CALIFORNIA, priority 2017, published 2020).
In brackets after ≈: the same amount, converted by molar mass. Read-outs that look alike come from different tables or passages of the source.

Legend:
Format in all cases: cell-based
S. pneumoniae = experiment: MIC, Gram-positive bacteria: S. pneumoniae; settings: Streptococcus pneumoniae, column 10, read-out: Minimal Inhibitory Concentration (MIC) S. pneumoniae
[1] = test system: K. pneumoniae multidrug-resistant; experiment: MIC, Gram-negative bacteria: K. pneumoniae multidrug-resistant; settings: Klebsiella pneumoniae, read-out: Minimal Inhibitory Concentration (MIC) K. pneumoniae multidrug-resistant
E. faecium ATCC 35667 = experiment: MIC, Gram-positive bacteria: E. faecium ATCC 35667; settings: Enterococcus faecium, ATCC35667, column 2, read-out: Minimal Inhibitory Concentration (MIC) E. faecium ATCC 35667
E. faecalis = experiment: MIC, Gram-positive bacteria: E. faecalis; settings: Enterococcus faecalis, column 1, read-out: Minimal Inhibitory Concentration (MIC) E. faecalis
S. aureus = experiment: MIC, Gram-positive bacteria: S. aureus (strains not named); settings: Staphylococcus aureus, read-out: Minimal Inhibitory Concentration (MIC) S. aureus
H. influenzae ATCC 49247 = experiment: MIC, Gram-negative bacteria: H. influenzae ATCC 49247; settings: Haemophilus influenzae, ATCC49247, read-out: Minimal Inhibitory Concentration (MIC) H. influenzae ATCC 49247
[2] = test system: S. aureus Linezolid-resistant; cfr; experiment: MIC, Gram-positive bacteria: S. aureus Linezolid-resistant; cfr; settings: Staphylococcus aureus, column 9, read-out: Minimal Inhibitory Concentration (MIC) S. aureus Linezolid-resistant
P. aeruginosa ATCC 27853 = experiment: MIC, Gram-negative bacteria: P. aeruginosa ATCC 27853; settings: Pseudomonas aeruginosa, ATCC27853, read-out: Minimal Inhibitory Concentration (MIC) P. aeruginosa ATCC 27853
Gram-Negative Organisms = experiment: microbe, parasite or virus in culture
[3] = test system: P. aeruginosa MDR clinical isolate; experiment: MIC, Gram-negative bacteria: P. aeruginosa MDR clinical isolate; settings: Pseudomonas aeruginosa, read-out: Minimal Inhibitory Concentration (MIC) P. aeruginosa MDR clinical isolate
[4] = test system: S. aureus Vat A streptogramin; experiment: MIC, Gram-positive bacteria: S. aureus Vat A streptogramin; settings: Staphylococcus aureus, read-out: Minimal Inhibitory Concentration (MIC) S. aureus Vat A streptogramin
E. faecium VRE; vanA = experiment: MIC, Gram-positive bacteria: E. faecium VRE; vanA; settings: Enterococcus faecium, column 3, read-out: Minimal Inhibitory Concentration (MIC) E. faecium VRE
[5] = first unnamed S. aureus column (c4)
[6] = fourth unnamed S. aureus column (c8)
[7] = second unnamed S. aureus column (c6)
[8] = third unnamed S. aureus column (c7)
[9] = Acinetobacter baumannii, ATCC19606, read-out: Minimal Inhibitory Concentration (MIC), A. baumannii ATCC 19606
[10] = Escherichia coli, ATCC25922, read-out: Minimal Inhibitory Concentration (MIC), E. coli ATCC 25922
[11] = Escherichia coli, read-out: Minimal Inhibitory Concentration (MIC), E. coli BAS2006, OMP C, OMP F
[12] = Escherichia coli, read-out: Minimal Inhibitory Concentration (MIC), E. coli olC efflux defective
[13] = Escherichia coli, read-out: Minimal Inhibitory Concentration (MIC), E. coli permeability mutant BAS1314, IMP4213ZAB::TN10
[14] = Escherichia coli, read-out: Minimal Inhibitory Concentration (MIC), E. coli ΔompC768, KanR insert
[15] = Klebsiella pneumoniae, ATCC43816, read-out: Minimal Inhibitory Concentration (MIC), K. pneumoniae ATCC 43816

Compound	MIC (S. pneumoniae) [µg/mL]	MIC [1] [µg/mL]	MIC (E. faecium ATCC 35667) [µg/mL]	MIC (E. faecalis) [µg/mL]	MIC (S. aureus; [5]) [µg/mL]	MIC (S. aureus; [6]) [µg/mL]	MIC (S. aureus; [7]) [µg/mL]	MIC (S. aureus; [8]) [µg/mL]	MIC (H. influenzae ATCC 49247) [µg/mL]	MIC [2] [µg/mL]	MIC (P. aeruginosa ATCC 27853) [µg/mL]	MIC (Gram-Negative Organisms; [9]) [µg/mL]	MIC (Gram-Negative Organisms; [10]) [µg/mL]	MIC (Gram-Negative Organisms; [11]) [µg/mL]	MIC (Gram-Negative Organisms; [12]) [µg/mL]	MIC (Gram-Negative Organisms; [13]) [µg/mL]	MIC (Gram-Negative Organisms; [15]) [µg/mL]	MIC [3] [µg/mL]	MIC ([4]; Gram-positive, column 5) [µg/mL]	MIC (E. faecium VRE; vanA) [µg/mL]	also measured
CC1=C\[C@@H](O)CC(=O)Cc2nc(co2)C(=O)N[C@H](Cc2ccc(O)cc2)C(=O)O[C@H](C(C)C)[C@H](C)/C=C/C(=O)NC\C=C\1 [SA0202097]	64 (≈ 108 µM)	> 64	> 64	> 64	> 64	> 64	> 64	> 64	> 64	> 64	> 64	> 64	> 64	> 64	32 (≈ 53.9 µM)	32 (≈ 53.9 µM)	> 64	> 64	> 64	> 64	MIC (Gram-Negative Organisms; [14]): > 64 µg/mL
CC1=C\[C@@H](O)CC(=O)Cc2nc(co2)C(=O)N2CCC[C@@H]2C(=O)O[C@H]([C@@H](C)CN2CCC(N(C)C)CC2)[C@H](C)/C=C/C(=O)NC\C=C\1 [SA0110252]	> 64	> 64	> 64	> 64	> 64	> 64	> 64	> 64	> 64	> 64	> 64	> 64	> 64	> 64	> 64	> 64	> 64	> 64	> 64	> 64	MIC (Gram-Negative Organisms; [14]): > 64 µg/mL
CC(C)[C@H]1OC(=O)[C@H]2CCCN2C(=O)c2coc(n2)CC(=O)C[C@H](O)/C=C/C=C/CNC(=O)/C=C/[C@H]1C [SA0110239]	64 (≈ 125 µM)	> 64	> 64	> 64	> 64	> 64	> 64	> 64	> 64	> 64	> 64	> 64	> 64	64 (≈ 125 µM)	8 (≈ 15.6 µM)	8 (≈ 15.6 µM)	> 64	> 64	> 64	> 64	MIC (Gram-Negative Organisms; [14]): > 64 µg/mL
CC1=C\[C@@H](O)CC(=O)Cc2nc(co2)C(=O)N2CCC[C@@H]2C(=O)O[C@H]([C@@H](C)COC(=O)Nc2ccccc2)[C@H](C)/C=C/C(=O)NC\C=C\1 [SA0110043]	16 (≈ 24.1 µM)	> 64	16 (≈ 24.1 µM)	> 64	32 (≈ 48.3 µM)	32 (≈ 48.3 µM)	32 (≈ 48.3 µM)	64 (≈ 96.6 µM)	32 (≈ 48.3 µM)	> 64	> 64	> 64	> 64	16 (≈ 24.1 µM)	2 (≈ 3.02 µM)	8 (≈ 12.1 µM)	> 64	> 64	> 64	64 (≈ 96.6 µM)	–
CC1=C\[C@@H](O)CC(=O)Cc2nc(co2)C(=O)N2CCC[C@@H]2C(=O)O[C@H](C(C)C)[C@H](C)/C=C/C(=O)NC\C=C\1 [virginiamycin M2, Virginiamycin M2, reference compound]	8 (≈ 15.2 µM)	> 64	4 (≈ 7.58 µM)	> 64	16 (≈ 30.3 µM)	8 (≈ 15.2 µM)	16 (≈ 30.3 µM)	32 (≈ 60.6 µM)	16 (≈ 30.3 µM)	> 64	> 64	> 64	> 64	2 (≈ 3.79 µM)	2 (≈ 3.79 µM)	2 (≈ 3.79 µM)	> 64	> 64	> 64	8 (≈ 15.2 µM)	–
CC1=C\[C@@H](O)CC(=O)Cc2nc(co2)C(=O)N2CCC[C@@H]2C(=O)O[C@H]([C@H](C)COC(=O)Nc2ccc3ccccc3n2)[C@H](C)/C=C/C(=O)NC\C=C\1 [SA0110223]	32 (≈ 44.8 µM)	> 64	4 (≈ 5.6 µM)	> 64	8 (≈ 11.2 µM)	4 (≈ 5.6 µM)	8 (≈ 11.2 µM)	16 (≈ 22.4 µM)	8 (≈ 11.2 µM)	> 64	> 64	> 64	> 64	16 (≈ 22.4 µM)	2 (≈ 2.8 µM)	2 (≈ 2.8 µM)	> 64	> 64	32 (≈ 44.8 µM)	16 (≈ 22.4 µM)	MIC (Gram-Negative Organisms; [14]): > 64 µg/mL
CC1=C\[C@@H](O)CC(=O)Cc2nc(c([Si](C)(C)C)o2)C(=O)N2CCC[C@@H]2C(=O)O[C@H](C(C)C)[C@H](C)/C=C/C(=O)NC\C=C\1 [SA0110261]	64 (≈ 107 µM)	> 64	64 (≈ 107 µM)	> 64	> 64	64 (≈ 107 µM)	64 (≈ 107 µM)	> 64	> 64	> 64	> 64	> 64	> 64	> 64	64 (≈ 107 µM)	16 (≈ 26.7 µM)	> 64	> 64	–	> 64	MIC (Gram-Negative Organisms; [14]): > 64 µg/mL; MIC [4]: > 64 µg/mL
CC1=C\[C@@H](O)C[C@@H](F)Cc2nc(cs2)C(=O)N2CCC[C@@H]2C(=O)O[C@H](C(C)C)[C@H](C)/C=C/C(=O)NC\C=C\1 [SA0110279]	1 (≈ 1.83 µM)	> 64	0.5 (≈ 0.913 µM)	> 64	0.5 (≈ 0.913 µM)	0.5 (≈ 0.913 µM)	0.5 (≈ 0.913 µM)	1 (≈ 1.83 µM)	0.25 (≈ 0.456 µM)	> 64	> 64	> 64	32 (≈ 58.4 µM)	0.25 (≈ 0.456 µM)	1 (≈ 1.83 µM)	< 0.06	> 64	> 64	8 (≈ 14.6 µM)	1 (≈ 1.83 µM)	MIC (Gram-Negative Organisms; [14]): 32 µg/mL (≈ 58.4 µM)
CC1=C\[C@@H](O)CC(=O)Cc2nc(co2)C(=O)N2CCC[C@@H]2C(=O)O[C@H]([C@@H](C)COC(=O)Nc2ccc(F)cc2)[C@H](C)/C=C/C(=O)NC\C=C\1 [SA0110036]	16 (≈ 23.5 µM)	> 64	8 (≈ 11.8 µM)	> 64	32 (≈ 47 µM)	16 (≈ 23.5 µM)	32 (≈ 47 µM)	> 64	> 64	> 64	> 64	> 64	> 64	8 (≈ 11.8 µM)	2 (≈ 2.94 µM)	8 (≈ 11.8 µM)	> 64	> 64	> 64	32 (≈ 47 µM)	–
CC1=C\[C@@H](O)CC(=O)Cc2nc(co2)C(=O)N2CCC[C@@H]2C(=O)O[C@H]([C@H](C)COC(=O)Nc2cc(C)on2)[C@H](C)/C=C/C(=O)NC\C=C\1 [SA0110225]	32 (≈ 47.9 µM)	> 64	32 (≈ 47.9 µM)	> 64	> 64	64 (≈ 95.8 µM)	64 (≈ 95.8 µM)	> 64	16 (≈ 24 µM)	> 64	> 64	> 64	> 64	> 64	4 (≈ 5.99 µM)	8 (≈ 12 µM)	> 64	> 64	> 64	64 (≈ 95.8 µM)	MIC (Gram-Negative Organisms; [14]): > 64 µg/mL
